Here are results for 1 substance from US20210038668A1, “TRADITIONAL CHINESE MEDICINE COMPOSITION FOR PREVENTING AND/OR TREATING ISCHEMIC REPERFUSION INJURY” (TASLY PHARMACEUTICAL GROUP CO., LTD., priority 2018, published 2021).

What all share (format): in vivo, C57BL/6 mice
The subject of test [1] is 8-OHdG. Put plainly: ELISA of 8-OHdG in brain tissue. As to conditions: brain tissue 24 hours after administration; tPA 10 mg/kg alone or + T541 20 mg/kg or ingredients at Table 7 doses. The source says:
To compare the therapeutical effect on reperfusion injury caused by tPA thrombolysis between the traditional Chinese medicinal composition of the present invention and each ingredient (total saponins of Astragalus, the experiment was divided into the following group (tPA is combined with T541, individual ingredient thereof and compatibility of any two ingredients) specifically as follows: tPA+total saponins of Astragalus (tPA+HQ), tPA+ salvianolic acids (tPA+DS), tPA+Panax notoginseng saponins (tPA+SQ), tPA+ total saponins of Astragalus+salvianolic acids (tPA+HQ+DS), tPA+ total saponins of Astragalus+Panax notoginseng saponins (tPA+HQ+SQ), tPA+ salvianolic acids+Panax notoginseng saponins (tPA+DS+SQ) and tPA+T541. Normal saline served as an isovolumetric control. The usage number in each group is 6.
ELISA adsorption kit was used to measure the change on the content of MDA, 8-hydroxyl-2′-deoxyguanosine (8-OHdG), adenosine triphosphate (ATP), adenosine diphosphate (ADP) and adenosine monophosphate (AMP) in the penumbra field of brain tissue cortex of the mode, and the change on the activity of mitochondrial complexes I, II, IV and V. 6 samples were used to repeat the independent experiment for at least three times for each group of data.
For orientation: An ELISA detects its analyte on a solid surface through an enzyme-linked reagent.

Test [2] relates to thrombus of arteria carotis communis. Put plainly: Observation of carotid thrombus size, FeCl3 model. As for the experimental part:
Mice were anesthetized via intraperitoneal injection by pentobarbital sodium (2%, 45 mg/kg), and neck kin was sterilized. A median incision was cut on the neck, exposed and isolated to obtain arteria carotis communis; a waterproof cushion was used to isolate arteria carotis communis with the length of about 2.5-3 mm from surrounding tissues. The isolated arteria carotis communis was wrapped by a filter paper soaked by 10% FeCl3 for about 1 mm (width), and the filter paper was removed 3 minutes later, the outside of blood vessel was washed by 0.9% normal saline. The waterproof cushion was removed. The neck incision was sutured. The start of Fe3+ stimulation was defined as the beginning of ischemia, and those mice meeting the following conditions were selected into the group: the blood vessel was blocked at the maximum diameter of the neck thrombus 10 minutes after ischemia; the blood flow of the carotid artery distal end was less than 20% of the base value 15 minutes after ischemia; and the thrombus was stable 4.5 hours after ischemia (before reperfusion); the carotid artery vessel at 60% and more of the diameter was blocked by the maximum diameter of the thrombus.
Mice were treated by medicaments or normal saline according to random grouping results 4.5 hours after ischemia. Mice femoral vein was intubated, and left femoral vein was injected tPA (tissue plasminogen activator) or normal saline; right femoral vein was injected the traditional Chinese medicinal composition of the present invention or normal saline; 10% of the total dose was injected via an injection pump, and the rest 90% were continuously injected intravenously for 1 hour with the rate of 0.1 ml/h. Three proportion groups were selected to the traditional Chinese medicinal composition of the present invention respectively below:
Carotid thrombus of mice was dynamically observed by an upright microscope. Anesthetized mice were placed on a board in supine position, a median incision was cut on the neck; arteria carotis communis was exposed and separated; femoral vein was given Acridine red fluorescence labeling of blood platelet to observe the change of carotid thrombus of mice before ischemia (namely, a base value), 10 minutes after ischemia, 4.5 hours after ischemia (namely, before reperfusion), 1 hour after reperfusion, 2 hours after reperfusion and 24 hours after reperfusion. There was no thrombus before ischemia (namely, a base value); the blood vessel was blocked by thrombus at a maximum diameter 10 minutes after ischemia; blood flow at the distal end of carotid artery decreased to 20% of the base value below 15 minutes after ischemia; the thrombus was stable 4.5 hours after ischemia (namely, before reperfusion). The success criterion is that the size of thrombus blocks 60% of the vascular area of carotid artery and above; the success rate of entry is up to 90.9%. Excepting for the sham-operated group and each basal group, the rest groups were randomly allocated after building models successfully.

Test [3] concerns brain tissue (blood brain barrier leakage). Description: Evens Blue leakage in brain tissue. To be noted: 24 h after administration; method: microgram Evens Blue per gram brain tissue; tPA 10 mg/kg alone; T541 20 mg/kg + tPA 10 mg/kg. As for the experimental part:
Evens Blue leakage: after reperfused for 21 hours, mice were slowly injected an Evens Blue dye (2%, 4 ml/kg) dissolving in normal saline via femoral vein. 3 hours later, mice were perfused 15-20 ml of normal saline till auricula dextra flows colourless liquid, then the brain was immediately separated and immobilized in a 3% paraformaldehyde for 3 hours, then taken out, the brain was cut into 5 slices and shoot; left and right brain was separated and respectively weighed. Left and right brain was respectively added to an EP tube containing 1 ml of 50% trichloroacetic acid, homogenated and centrifuged to obtain the supernatant. An Evens Blue standard was prepared and the content of Evens Blue was detected by a multimode reader (exciting light: 620 nm, emitting light: 680 nm). The content of Evens Blue was denoted by the microgram of Evens Blue in per gram of brain tissue.

Test [4] deals with brain surface postcapillary venule. Put plainly: Plasma albumin leakage of brain surface postcapillary venule. To be noted: 24 h after administration; tPA 10 mg/kg alone; T541 20 mg/kg + tPA 10 mg/kg. How it is done: Plasma albumin leakage: femoral venous cannula of mice was conducted under a stereoscopic microscope (PE/08, outer diameter: 0.36 mm and inner diameter: 0.20 mm). Mice were fixed on an observation board for brain microcirculation in prone position; parietal skin of mice was cut off to expose right parietal bone; the whole parietal bone was thinned by grinding by a hand-held cranial drill till there is only one layer of soft bone cortex under the stereoscopic microscope. FITC-labelled plasma albumin (excitation wavelength: 420-490 nm, emission wavelength: 520 nm) was slowly injected via femoral vein. 10 minutes later, fluorescence images of postcapillary venule, artery in the dominant region of middle cerebral artery and artery in the dominant region of anterior cerebral artery among […] (diameter) on the surface of the mice brain after reperfused for 24 hours by an upright fluorescent microscope linked to hypersensitive fluorescent CCD; then leakage of plasma albumin was analyzed. Fluorescence intensity inside (Iv) and outside (Ii) venule was calculated by an image analysis software ImageJ (Bethesda, Md., USA); the leakage of plasma albumin is denoted by Ii/Iv.

[5] abbreviates: before administration, groups: tPA 10 mg/kg alone, T541 20 mg/kg, T141 12 mg/kg, T582 15 mg/kg each + tPA 10 mg/kg.
[6] abbreviates: iv, tPA 10 mg/kg alone, T541 20 mg/kg, T141 12 mg/kg, T582 15 mg/kg each + tPA 10 mg/kg.

For the substance “tPA: tissue-type plasminogen activator (tPA) for thrombolysis”, the 8-OHdG in test [1] was found to be 1.84 ± 0.11. Moreover, in test [2] (setting [5]), the “Size of thrombus, 10 minutes after FeCl3 simulation” value is given as 25.13 ± 1.34 and the “Size of thrombus, Before FeCl3 simulation” value was 0 ± 0. For the same substance, the “thrombolysis effect (in words)” value in test [2] (given alone: T541 20 mg/kg, tPA 10 mg/kg (24 hours later)) is given as “size of thrombus decreases obviously”. Also, in test [2] (setting [6]), the “Size of thrombus, 5.5 hours after FeCl3 simulation (1 hour after administration)” value is 22.14 ± 1.36; the “Size of thrombus, 6.5 hours after FeCl3 simulation (2 hours after administration)” value is 16.64 ± 4.10; the “Size of thrombus, 28.5 hours after FeCl3 simulation (24 hours after administration)” value is 11.15 ± 2.61. The “Size of thrombus, 4.5 hours after FeCl3 simulation” value in test [2] (start of administration, groups: tPA 10 mg/kg alone, T541 20 mg/kg, T141 12 mg/kg, T582 15 mg/kg each + tPA 10 mg/kg) was 23.47 ± 1.78. For the same substance, the “Evens Blue leakage” value in test [3] is recorded as 17.55 ± 1.23. The “Albumin exudation ratio of venule %” value in test [4] is on record as 125.10 ± 3.53 %.
